PMC7403980, “Anti-Inflammatory Effects of the Novel PIM Kinase Inhibitor KMU-470 in RAW 264.7 Cells through the TLR4-NF-κB-NLRP3 Pathway” (International Journal of Molecular Sciences, 2020)
pIC50: −log10 of the molar value.

Experiments:
PIM-2 = target: T1, PIM-2 (Homo sapiens, UniProt Q9P1W9); test: PIM kinase IMAP fluorescence polarization IC50 determination; type: biochemical; details: ATP 5 μM; average of two independent experiments; read-out: Inhibitory Activity IC50 PIM-2
T1 construct: purchased Abcam (Cambridge, UK)
T1 sequence (Q9P1W9 whole entry, species assumed): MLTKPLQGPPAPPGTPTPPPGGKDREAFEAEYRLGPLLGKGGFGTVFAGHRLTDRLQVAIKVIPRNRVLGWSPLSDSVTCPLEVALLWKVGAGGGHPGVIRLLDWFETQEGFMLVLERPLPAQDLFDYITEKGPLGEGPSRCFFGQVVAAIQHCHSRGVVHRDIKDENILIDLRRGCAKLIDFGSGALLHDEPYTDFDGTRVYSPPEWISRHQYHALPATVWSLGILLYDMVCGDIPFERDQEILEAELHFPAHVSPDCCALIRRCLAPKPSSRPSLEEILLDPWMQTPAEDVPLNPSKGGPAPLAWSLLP
Description: (§1) The recombinant PIM kinase, human 5-FAM-labelled Bad peptide substrate, and ATP were prepared in a reaction buffer containing 10 mM HEPES (pH 7.2), 10 mM MgCl2, 0.05% NaN3, 0.01% Triton X-100, and 2 mM DTT. […] Reagents were added to the plate as follows: 2.5 μL compound, 2.5 μL PIM kinase, 2.5 μL ATP, and 2.5 μL 5-FAM-labelled Bad peptide substrate (a final concentration of 100 nM). The final concentrations of ATP in the kinase reactions were 30 μM, 5 μM, and 20 μM for PIM1, PIM2, and PIM3, respectively. […] Kinase reactions were incubated at room temperature for 90 min, and then the reactions were stopped by the addition of 20 μL of IMAP binding reagent (solution containing 75% Buffer A: 25% Buffer B, and a 1 in 600 dilution of beads). After quenching, the plates were incubated at room temperature for 2 h, and then the fluorescence polarization measurements were carried out on an Infinity F200 (Tecan, Männedorf, Zürich, Switzerland). The percentage of inhibition was calculated for each compound concentration and the data were fitted to the equation of a 4-parameter logistic curve. IC50 values were obtained using GraphPad Prism (GraphPad Software, Inc., La Jolla, CA, USA).

PIM-3 = target: T2, PIM-3 (Homo sapiens, UniProt Q86V86); test: as above; type: biochemical; details: ATP 20 μM; average of two independent experiments; read-out: Inhibitory Activity IC50 PIM-3
T2 construct: purchased Millipore (Burlington, MA, USA)
Description: as §1

PIM-1 = target: T3, PIM-1 (Homo sapiens, UniProt P11309); test: as above; type: biochemical; details: ATP 30 μM; average of two independent experiments; read-out: Inhibitory Activity IC50 PIM-1
T3 construct: purchased Life Technologies (Carlsbad, CA, USA)
T3 sequence (P11309 whole entry, species assumed): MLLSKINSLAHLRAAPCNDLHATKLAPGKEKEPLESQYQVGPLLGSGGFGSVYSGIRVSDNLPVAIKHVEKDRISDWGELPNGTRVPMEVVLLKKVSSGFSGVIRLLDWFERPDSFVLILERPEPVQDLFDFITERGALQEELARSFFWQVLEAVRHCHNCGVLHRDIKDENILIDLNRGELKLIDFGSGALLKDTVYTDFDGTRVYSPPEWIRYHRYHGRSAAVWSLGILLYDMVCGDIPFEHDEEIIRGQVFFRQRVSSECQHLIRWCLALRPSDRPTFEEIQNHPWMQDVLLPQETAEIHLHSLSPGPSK
Description: as §1

ERK = test: LPS-induced phosphorylation of ERK in RAW 264.7 cells (Western blot); type: cell-based, murine; details: KMU-470 1 μM 24 h pre-treatment, LPS 50 ng/mL
Description: Figure 5 Effect of KMU-470 on LPS-induced phosphorylation of MAPKs/ IKKs/ NF-κB in RAW 264.7 cells. (A) Cells were pre-treated with 1μM of KMU-470 for 24 h and stimulated with LPS (50 ng/mL) at the indicated times. (C) Cells were pre-treated with 0.5 and 1μM of KMU-470 for 30 min prior to LPS treatment. Total proteins were isolated after 6 h exposure to LPS (50 ng/mL). The protein expression level of MAPKs, p-IKKα/β, and p-NF-κB were assessed using Western blot analyses. (B,D) The relative optical densities of MAPKs, p-IKKα/β, and p-NF-κB bands were analyzed by the Image-J program. *** p < 0.001.
RAW 264.7 cells were pre-treated with KMU-470 (0.5–1 μM/mL) for 24 h and stimulated with LPS (50 ng/mL) for 6 h. After stimulation, total cells were harvested, washed with PBS buffer, and then the total protein was extracted with a RIPA buffer (0.1 mM sodium orthovanadate, 137 mM NaCl, 15 mM EGTA, 0.1% Triton X-100, 25 mM MOPS, 15 mM MgCl2, 100 μM phenylmethylsulfonyl fluoride, and 20 μM leupeptin, adjusted to pH 7.2). […] Immunoreactive proteins were detected using the ELC Western blot detection system kit (Millipore). Signal intensity was measured using the Chemi Image documentation system (Fusion Fx7, VILBER LOUTMAT). Protein expression levels were quantified using the Image J program.

IL-1β mRNA = test: LPS-induced IL-1β mRNA expression in RAW 264.7 cells (RT-PCR); type: cell-based, murine; details: LPS 50 ng/mL 6 h
Description: Total RNA was isolated, and used to measure the mRNA expression levels of IL-1b and β-actin by RT-PCR analysis. *** p < 0.001, ** p < 0.01. […] (A-C) Cells were treated with KMU-470 for 30 min and stimulated with LPS 50 ng/mL for 6 h. The levels of IL-1β, TNF-α, and IL-6 were determined using real time PCR. *** p < 0.001, *p < 0.05. (D) Cells were pre-treated with 0.1, 0.5, and 1 μM of KMU-470 for 30 min and treated with LPS 50 ng/mL for 6 h, respectively. […] (E) Cells were pre-treated with 0.1, 0.5, and 1 μM of KMU-470 for 30 min and treated with LPS 50 ng/mL for 6 h, respectively. […] Total RNA was isolated using TriZol reagent (Life Technologies; Gaithersburg, MD, USA) according to the manufacturer's protocol. Total RNA absorbance was quantified by using Nanodrop 1000 (Thermo Fisher Scientific, Waltham, MA, USA). […] Real time quantitative PCR was performed by using the SYBR green premix (Roche Diagnostics, Mannheim, Germany) on the LightCycler 480 PCR (system Roche Diagnostics, Mannheim, Germany). The following primer sequences were used: L32 (Housekeeping gene): forward [NT], reverse [NT]-1β; forward [NT], reverse [NT]-α; forward [NT], reverse [NT]-6; forward [NT], reverse [NT].

IL-6 = test: LPS-induced IL-6 mRNA in RAW 264.7 cells (real time PCR); type: cell-based, murine; details: KMU-470 30 min, LPS 50 ng/mL 6 h
Description: Figure 6 Inhibitory effect of KMU-470 on LPS-induced up-regulation of pro-inflammatory cytokines and activation of NLRP3 inflammasome in RAW 264.7 cells. (A–C) Cells were treated with KMU-470 for 30 min and stimulated with LPS 50 ng/mL for 6 h. The levels of IL-1β, TNF-α, and IL-6 were determined using real time PCR. *** p < 0.001, *p < 0.05. (D) Cells were pre-treated with 0.1, 0.5, and 1 μM of KMU-470 for 30 min and treated with LPS 50 ng/mL for 6 h, respectively. Whole cell lysates were isolated and used to measure the protein expression levels of pro-IL-1β and β-actin by Western blot analysis. (E) Cells were pre-treated with 0.1, 0.5, and 1 μM of KMU-470 for 30 min and treated with LPS 50 ng/mL for 6 h, respectively. Whole cell lysates were isolated and used to measure the protein expression levels of […], ASC, pro-caspase-1, pro-IL-1β, and β-actin by Western blot analysis.
Total RNA was isolated using TriZol reagent (Life Technologies; Gaithersburg, MD, USA) according to the manufacturer’s protocol. Total RNA absorbance was quantified by using Nanodrop 1000 (Thermo Fisher Scientific, Waltham, MA, USA). […] Real time quantitative PCR was performed by using the SYBR green premix (Roche Diagnostics, Mannheim, Germany) on the LightCycler 480 PCR (system Roche Diagnostics, Mannheim, Germany). […]

pIC50 (PIM-2): 6.66 | pIC50 (PIM-3): 8.16 | pIC50 (PIM-1): 8.25
Compound: CN(C)CCNc1cncc(-c2ccc3c(c2)/C(=C/c2cnc[nH]2)C(=O)N3)n1 [KMU-470, (Z)-3-((1H-Imidazol-5-yl)methylene)-5-(6-((2-(dimethylamino)ethyl)amino)pyrazin-2-yl)indolin-2-one]
LPS-induced phosphorylation of ERK (ERK): significantly inhibited | LPS-induced up-regulation of IL-1β mRNA expression (IL-1β mRNA; 1 µM compound, pre-treatment 1 h, RT-PCR (Figure 2B)): significantly inhibited | LPS-induced up-regulation of IL-1β (mRNA) (IL-1β mRNA; KMU-470 30 min, real time PCR (Figure 6A)): significantly decreased | LPS-induced up-regulation of IL-6 (mRNA) (IL-6): significantly decreased
